Measured values taken from ChEMBL document CHEMBL1145312, “Structure-activity relationships of triazolopyridine oxazole p38 inhibitors: identification of candidates for clinical development” (Bioorg Med Chem Lett, 2006).
≈ marks a conversion by molar mass, not a printed value.

Key:
Monocyte = test: Inhibition of LPS-induced TNFalpha production in human monocytes; type: functional, cell-based
[1] = target: Mitogen-activated protein kinase 14 (Homo sapiens, UniProt Q16539); test: Inhibition of p38alpha
Mitogen-activated protein kinase 14, sequence (Q16539 whole entry): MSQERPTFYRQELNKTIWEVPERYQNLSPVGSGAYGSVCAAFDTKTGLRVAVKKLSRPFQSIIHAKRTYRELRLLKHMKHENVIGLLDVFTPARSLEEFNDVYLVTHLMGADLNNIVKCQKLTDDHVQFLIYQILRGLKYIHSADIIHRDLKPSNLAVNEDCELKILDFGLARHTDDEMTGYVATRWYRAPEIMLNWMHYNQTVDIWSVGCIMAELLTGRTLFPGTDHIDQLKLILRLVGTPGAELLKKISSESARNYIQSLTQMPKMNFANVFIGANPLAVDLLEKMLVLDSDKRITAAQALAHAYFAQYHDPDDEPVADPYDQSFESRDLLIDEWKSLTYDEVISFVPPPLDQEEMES

[2] = Hepatocyte extraction ratio in human; type: ADME, cell-based; details: hepatocytes
Homo sapiens = organism: Homo sapiens; test: Inhibition of LPS-induced TNFalpha production in human whole blood; type: functional, organism-based
[3] = Hepatocyte microsomal extraction ratio in human; details: hepatic microsomes
[4] = Permeability from basolateral to apical side of Caco-2 cell membrane; type: ADME, cell-based; details: human
[5] = Permeability from apical to basolateral side of Caco-2 cell membrane; type: ADME, cell-based; details: human
[6] = Plasma clearance in monkey; type: ADME, organism-based, Macaca mulatta; details: rhesus monkey
[7] = Bioavailability in monkey; type: ADME, organism-based, Macaca mulatta; details: rhesus monkey, in vivo
[8] = Solubility in PBS buffer at ph 6.5; type: physicochemical
[9] = Volume of distribution in rat; type: ADME, organism-based; details: in vivo, read-out: Vdss
[10] = Volume of distribution in monkey; type: ADME, organism-based, Macaca mulatta; details: rhesus monkey, in vivo; read-out: Vdss
[11] = Bioavailability in rat; type: ADME, organism-based; details: in vivo
[12] = Half life in monkey; type: ADME, organism-based, Macaca mulatta; details: rhesus monkey, in vivo
Rattus norvegicus = organism: Rattus norvegicus; test: Inhibition of LPS-induced TNFalpha release in rat; type: functional
[13] = Half life in rat; type: ADME, organism-based; details: in vivo
[14] = Plasma clearance in rat; type: ADME, organism-based

SMILES	IC50 (Monocyte) [µM]	IC50 [1] [µM]	IC50 (Homo sapiens) [µM]	also measured
CCOc1ccccc1-c1nnc2ccc(-c3ocnc3-c3ccc(F)cc3)cn12	0.01	0.0004	0.697	hepatic extraction ratio [2]: > 0.5
CC(C)c1nnc2ccc(-c3ocnc3-c3c(F)cc(F)cc3F)cn12	0.06	0.0072	0.65	hepatic extraction ratio [3]: < 0.3
CC(C)c1nnc2ccc(-c3ocnc3-c3ccc(Cl)c(Cl)c3)cn12	0.148	0.0264		
CC(C)c1nnc2ccc(-c3ocnc3-c3ccc(Cl)cc3Cl)cn12	0.03	0.0083		hepatic extraction ratio [3]: < 0.3
CC1(c2nnc3ccc(-c4ocnc4-c4ccc(F)cc4F)cn23)CC1	0.03	0.0007	0.245	hepatic extraction ratio [2]: > 0.5
Fc1ccc(-c2ncoc2-c2ccc3nnc(C4CCC4)n3c2)cc1	0.049	0.0177		hepatic extraction ratio [2]: > 0.5
Fc1ccc(-c2ncoc2-c2ccc3nnc(C4CC4)n3c2)cc1	0.186	0.0109	4.65	hepatic extraction ratio [2]: > 0.5
CCNc1nnc2ccc(-c3ocnc3-c3ccccc3)cn12	0.04	0.0054	1.71	hepatic extraction ratio [2]: > 0.5
CCN(C)c1nnc2ccc(-c3ocnc3-c3ccc(F)cc3)cn12	0.0346	0.0047	1.55	
CC(C)c1nnc2ccc(-c3ocnc3-c3c(F)cccc3F)cn12	0.0711	0.0146		hepatic extraction ratio [3]: < 0.3
CC(C)c1nnc2ccc(-c3ocnc3-c3cc(Cl)ccc3F)cn12	0.01	0.0051	0.19	
CC(C)c1nnc2ccc(-c3ocnc3-c3ccccc3Cl)cn12	0.0574	0.003	0.937	
Fc1cc(F)c(-c2ncoc2-c2ccc3nnc(C4CC4)n3c2)cc1F	0.04	0.0078	0.565	hepatic extraction ratio [3]: < 0.3
CC(C)Cc1nnc2ccc(-c3ocnc3-c3ccc(F)cc3)cn12	0.07	0.0088		
CC(C)(C)c1nnc2ccc(-c3ocnc3-c3cc(F)ccc3F)cn12	0.0141	0.0088	0.22	hepatic extraction ratio [3]: < 0.3
FC(F)(F)Cc1nnc2ccc(-c3ocnc3-c3ccccc3)cn12	0.915	0.0832		hepatic extraction ratio [2]: > 0.5
CC(C)Nc1nnc2ccc(-c3ocnc3-c3ccc(F)cc3)cn12	0.0316	0.0055		
Fc1ccc(-c2ncoc2-c2ccc3nnc(C4CC4)n3c2)c(F)c1	0.0458	0.0035	0.91	
Fc1ccc(-c2ncoc2-c2ccc3nnc(N4CCOCC4)n3c2)cc1	1.44	0.0118		hepatic extraction ratio [3]: < 0.3
FC(F)c1nnc2ccc(-c3ocnc3-c3ccccc3)cn12		0.544		
CC1(c2nnc3ccc(-c4ocnc4-c4cc(F)c(F)cc4F)cn23)CCC1	0.01	0.0025	0.09	
Cc1ccc(F)c(-c2ncoc2-c2ccc3nnc(C(C)C)n3c2)c1	0.01	0.0043		hepatic extraction ratio [2]: > 0.5

SMILES	IC50 (Monocyte) [µM]	IC50 [1] [µM]	IC50 (Homo sapiens) [µM]	also measured
CC(C)c1nnc2ccc(-c3ocnc3-c3cc(F)c(F)c(F)c3)cn12	0.48	0.0041		hepatic extraction ratio [3]: < 0.3
CC(C)Oc1nnc2ccc(-c3ocnc3-c3ccc(F)cc3)cn12	0.47	0.0179		
c1ccc(-c2ncoc2-c2ccc3nnc(-c4ccno4)n3c2)cc1	> 2	0.285		
CCc1nnc2ccc(-c3ocnc3-c3ccc(F)cc3)cn12	0.63	0.0216		
CC(C)c1nnc2ccc(-c3ocnc3-c3cc(F)c(F)cc3Cl)cn12	0.0548	0.0056		hepatic extraction ratio [3]: < 0.3
Fc1ccc(F)c(-c2ncoc2-c2ccc3nnc(C4CC4)n3c2)c1	0.0316	0.024	1.4	hepatic extraction ratio [3]: < 0.3
CC(C)c1nnc2ccc(-c3[nH]cnc3-c3cc(F)ccc3F)cn12	0.0245	0.0062	0.297	Papp B→A [4]: 32 ×10⁻⁶ cm/s; Papp A→B [5]: 1 ×10⁻⁶ cm/s
Fc1ccc(F)c(-c2ncoc2-c2ccc3nnc(C4CCC4)n3c2)c1	0.06	0.0097		
CCc1nnc2ccc(-c3ocnc3-c3ccccc3)cn12	0.672	0.0545		hepatic extraction ratio [2]: > 0.5
Cc1cc(-c2ncoc2-c2ccc3nnc(C(C)C)n3c2)ccc1F	0.0116	0.0066	0.26	hepatic extraction ratio [2]: > 0.5
CC1(c2nnc3ccc(-c4ocnc4-c4cc(F)c(F)cc4F)cn23)CC1	0.0283	0.0023	0.263	hepatic extraction ratio [3]: < 0.3
Fc1ccc(-c2ncoc2-c2ccc3nnc(Cc4ccccc4)n3c2)cc1	> 1	0.0199		
CC1(c2nnc3ccc(-c4ocnc4-c4cc(F)ccc4F)cn23)CC1	0.0458	0.003	0.385	hepatic extraction ratio [3]: < 0.3
c1ccc(-c2ncoc2-c2ccc3nnc(C4CCC4)n3c2)cc1	0.0693	0.0166		
CC(C)(O)c1nnc2ccc(-c3ocnc3-c3cc(F)ccc3F)cn12	0.2	0.025	1.4	
Fc1cc(F)c(-c2ncoc2-c2ccc3nnc(C4CCC4)n3c2)cc1F	0.05	0.0091	0.353	
CCN(C)c1nnc2ccc(-c3ocnc3-c3ccccc3)cn12	0.08	0.0092		hepatic extraction ratio [2]: > 0.5
Cc1cccc(-c2ncoc2-c2ccc3nnc(C(C)C)n3c2)c1	0.0245	0.0183		
CC(C)c1nnc2ccc(-c3ocnc3-c3ccc(Cl)cc3)cn12	0.07	0.0177		
CC(C)c1nnc2ccc(-c3ocnc3-c3cccc(Cl)c3Cl)cn12	0.0574	0.0145		hepatic extraction ratio [3]: < 0.3
CC(C)c1nnc2ccc(-c3ocnc3-c3ccc(F)c(F)c3)cn12	0.049	0.0223		
COc1ccccc1-c1nnc2ccc(-c3ocnc3-c3ccc(F)cc3)cn12	0.01	0.0004	0.873	

SMILES	IC50 (Monocyte) [µM]	IC50 [1] [µM]	IC50 (Homo sapiens) [µM]	also measured
CC(C)c1nnc2ccc(-c3ocnc3-c3cc(F)c(Cl)cc3F)cn12	0.06	0.0245		hepatic extraction ratio [3]: < 0.3
CCCNc1nnc2ccc(-c3ocnc3-c3ccc(F)cc3)cn12		0.198		
CC(C)c1nnc2ccc(-c3ocnc3-c3ccc(F)c(Cl)c3)cn12	0.0472	0.0124	0.631	clearance [6]: 5.7 mL/min/kg; bioavailability [7]: 31%; solubility [8]: 2.8 µg/mL (≈ 7.85 µM); Vd [9]: 1.3 L/kg; Vd [10]: 1.4 L/kg; bioavailability [11]: 9.4%; half-life [12]: 4.7 h; ED50 (Rattus norvegicus): 0.5 mg/kg; half-life [13]: 0.9 h; clearance [14]: 17 mL/min/kg
CC(C)c1nnc2ccc(-c3ocnc3-c3cc(F)cc(F)c3F)cn12	0.49	0.0833		hepatic extraction ratio [3]: < 0.3
Fc1ccc(-c2ncoc2-c2ccc3nnc(C4CCC4)n3c2)c(F)c1	0.04	0.00375		hepatic extraction ratio [2]: > 0.5
CC(C)(C)c1nnc2ccc(-c3ocnc3-c3ccc(F)cc3)cn12	0.0387	0.0035	0.47	hepatic extraction ratio [3]: < 0.3
CC(C)c1nnc2ccc(-c3ocnc3-c3ccc(Cl)cc3F)cn12	0.02	0.0022	0.6	hepatic extraction ratio [3]: < 0.3; hepatic extraction ratio [2]: > 0.5
Fc1ccc(-c2ncoc2-c2ccc3nnc(-c4ccccc4)n3c2)cc1	0.09	0.0123	5.35	hepatic extraction ratio [2]: > 0.5
CC(C)c1nnc2ccc(-c3ocnc3-c3ccc(F)cc3F)cn12	0.01	0.0046	0.265	hepatic extraction ratio [2]: > 0.5
CC(C)c1nnc2ccc(-c3ocnc3-c3cccc(F)c3)cn12	0.135	0.0378		hepatic extraction ratio [2]: > 0.5
CC1(c2nnc3ccc(-c4ocnc4-c4ccc(F)cc4F)cn23)CCC1	0.01	0.0011	0.077	
CC(C)c1nnc2ccc(-c3ocnc3-c3ccc(Cl)c(F)c3)cn12	0.266	0.0432		
CCOc1nnc2ccc(-c3ocnc3-c3ccc(F)cc3)cn12	0.36	0.0555		
CC(C)c1nnc2ccc(-c3ocnc3-c3ccc(F)c(F)c3F)cn12	0.0574	0.0111		
CC(C)c1nnc2ccc(-c3cnoc3-c3cc(F)ccc3F)cn12	0.063	0.0332		Papp B→A [4]: 29 ×10⁻⁶ cm/s; Papp A→B [5]: 41 ×10⁻⁶ cm/s
CC1(c2nnc3ccc(-c4ocnc4-c4ccc(F)cc4)cn23)CCC1	0.04	0.014		hepatic extraction ratio [2]: > 0.5
Fc1ccc(-c2ncoc2-c2ccc3nncn3c2)cc1	> 5	0.0195		hepatic extraction ratio [3]: < 0.3
Fc1ccc(-c2ncoc2-c2ccc3nnc(N4CCCC4)n3c2)cc1	0.052	0.0154	0.935	hepatic extraction ratio [2]: > 0.5
c1ccc(-c2ncoc2-c2ccc3nnc(C4CC4)n3c2)cc1	0.15	0.0472		hepatic extraction ratio [2]: > 0.5
CN(C)c1nnc2ccc(-c3ocnc3-c3ccc(F)cc3)cn12	0.165	0.0153		hepatic extraction ratio [2]: > 0.5
CC1(c2nnc3ccc(-c4ocnc4-c4cc(F)ccc4F)cn23)CCC1	0.01	0.0015		
CC(C)c1nnc2ccc(-c3ocnc3-c3ccc(F)c(Br)c3)cn12	0.122	0.008		hepatic extraction ratio [3]: < 0.3
